# Laboratory results published in patent US12312328B2, “Pyrazoline dihydroquinolones, pharmaceutical compositions, and uses” (Emory University, priority 2013, dated 2025).
# What was measured:
# [1] = test system: GluN2D receptor mutants Q801Y, L705F and A752V; experiment: Inhibition of mutant GluN2D receptors (Q801Y, L705F and A752V); type: cell-based; conditions: racemic mixture, A752V versus wild type
# Procedure: Mutations to the wild type GluN2D receptor (Q801Y, L705F and A752V) were described to decrease sensitivity of the GluN2D receptor to blockade by either DQP-1105 and/or QNZ-46 in the membrane proximal region of the bilobed ligand binding domain encoded by the S2 region of the polypeptide chain were evaluated. See Acker et al. and Hansen & Traynelis, J Neurosci, 2011, 31, 3650-3661.
# [2] = test system: 42 different ion channels, G-protein coupled receptors, and transporters; experiment: NIMH PDSP primary binding assay; conditions: 5 μM compound
# Procedure: (§1) The actions of these two compounds at 5 μM on were tested 42 different ion channels, G-protein coupled receptors, and transporters via the National Institutes of Mental Health (NIMH) psychoactive drug screening program (PDSP).
# [3] = biological target: T1, 5-HT6 (Homo sapiens, UniProt P50406); experiment: NIMH PDSP Ki determination, 5-HT6; type: binding
# T1 construct: NIMH PDSP (screening programme)
# Procedure: as §1
# [4] = biological target: T2, H2 (Homo sapiens, UniProt P25021); experiment: NIMH PDSP Ki determination, H2; type: binding
# T2 construct: NIMH PDSP (screening programme)
# Procedure: as §1
# [5] = biological target: T3, kappa-opioid (Homo sapiens, UniProt P41145); experiment: NIMH PDSP Ki determination, kappa-opioid; type: binding
# T3 construct: NIMH PDSP (screening programme)
# Procedure: as §1
# [6] = Plasma stability, human; type: in vitro ADME; conditions: two-hour time-course
# Procedure: (§2) Three analogs, (58) 997-33, (26)997-23 and (64) 997-57 were evaluated for plasma stability as well as aqueous solubility. […] The aqueous solubility of compounds (26)997-23 and (58) 997-33 was evaluated in oocyte recording buffer using nephelometry. […] In order to assess the potential BBB penetration, compounds (26)997-23 and (64)997-57 were selected for evaluation in the MDR1-MDCK permeability assay (FIG. 19). […] The same compounds were also evaluated for metabolic stability using human liver microsomes.
# [7] = Plasma stability, rat; type: in vitro ADME; conditions: two-hour time-course
# Procedure: as §2
# [8] = Plasma stability, mouse; type: in vitro ADME; conditions: two-hour time-course
# Procedure: as §2
# [9] = Aqueous solubility in oocyte recording buffer by nephelometry; type: physicochemical
# Procedure: as §2
# [10] = test system: MDR1-MDCK cell monolayers; experiment: MDR1-MDCK permeability assay; type: in vitro ADME; conditions: MDR1-MDCK, 5 μM, 120 minutes
# Procedure: The Papp and efflux ratio were calculated as described in the Methods. […] See Wang et al., International Journal of Pharmaceutics, 2005, 288, 349-359.
# Cell monolayers were grown to confluence on collagen-coated, microporous, polycarbonate membranes in 12-well Costar Transwell® plates. The permeability assay buffer was Hanks Balanced Salt Solution containing 10 mM HEPES and 15 mM glucose at pH 7.4. The buffer in the receiver chamber also contained 1% bovine serum albumin. The dosing solution concentration in the assay buffer was 5 μM for each compound tested. The cell monolayers were dosed on the apical side (A-to-B) or basolateral side (B-to-A) and incubated at 37° C. with 5% CO2 in a humidified incubator. Samples were taken from the donor and receiver chambers at 120 minutes. Each determination was performed in duplicate. The co-dosed lucifer yellow flux was also measured for each monolayer to ensure no damage was inflicted to the cell monolayers during the flux period. All samples were assayed by LC-MS/MS using electrospray ionization. The apparent permeability (Papp) and percent recovery were calculated as follows. […] Human Liver Microsomal Stability
# [11] = Human liver microsomal stability; type: in vitro ADME; conditions: 60 minute assay
# Procedure: Human liver microsomes were obtained from XenoTech. The reaction mixture was prepared with 0.5 mg/mL human liver microsomes, 100 mM potassium phosphate (pH 7.4), 5 mM magnesium chloride, 1 μM test compound. The reaction mixture was incubated in a shaking water bath at 37° C. for 3 minutes prior to the addition of NADPH (1 mM). Testosterone was run simultaneously in a separate vessel as a control. 100 μl aliquots were taken at 0, 10, 20, 30 and 60 minutes for both test compound and testosterone. The aliquots were combined immediately with 400 μl of ice cold 50/50 ACN/dH2O containing 0.1% formic acid and internal standard to terminate the reaction. The samples were then mixed and centrifuged to precipitate microsomal proteins. All samples were assayed by LC-MS/MS using electrospray ionization and multiple reaction monitoring and the peak area responses to internal standard of the compounds at each time point was compared to the peak area response at time 0 to determine the percent compound remaining. The human liver microsomal stability assays were performed by Absorption Systems.
# [12] = biological target: GluN1/GluN2D (Rattus norvegicus, UniProt Q62645); experiment: Inhibition of GluN1/GluN2D responses: dependence on agonist concentration and on voltage; type: cell-based; conditions: 1 μM compound
# From the text: Although it is not intended that embodiments of this disclosure be limited by any mechanism, Acker et al. report a mechanism for noncompetitive inhibition by GluN2C/D N-methyl-d-aspartate receptor subunit-selective modulators. Molecular Pharmacology 2011, 80, 782-795.
# [13] = biological target: GluN1/GluN2D receptors (Rattus norvegicus, UniProt P35439+Q62645); experiment: Whole-cell patch clamp recordings of GluN1/GluN2D receptors expressed in HEK293 cells; type: cell-based
# [14] = biological target: T4, 5-HT1E (Homo sapiens, UniProt P28566); experiment: NIMH PDSP Ki determination, 5-HT1E; type: binding
# T4 construct: NIMH PDSP (screening programme)
# Procedure: as §1
# [15] = biological target: T5, mu-opioid (Homo sapiens, UniProt P35372); experiment: NIMH PDSP Ki determination, mu-opioid; type: binding
# T5 construct: NIMH PDSP (screening programme)
# Procedure: as §1
# [16] = biological target: T6, GluN2C-containing receptors (Rattus norvegicus, UniProt Q00961); experiment: Two-electrode voltage-clamp inhibition of GluN2C-containing NMDA receptors in Xenopus laevis oocytes; type: cell-based
# T6 construct: expressed in transfected cells; host or cells: Xenopus laevis oocytes
# Procedure: (§3) IC50 values were obtained by fitting the Hill equation to the average composite concentration-effect curves.
# (§4) Xenopus laevis oocytes were isolated and maintained as described in Hansen & Traynelis, J Neurosci 2011, 31, 3650-3661. Oocytes were placed in a perfusion chamber with recording solution comprised of (in mM) 90 NaCl, 1 KCl, 0.5 BaCl2, 0.005 EDTA and 10 HEPES, pH adjusted to 7.4 with NaOH at 23° C. The glass electrodes used had tip resistance of 0.5-2.0 MΩ and were filled with 0.3-3.0 M KCl. Compounds were made as 20 mM stock solutions in DMSO and diluted to final concentrations in recording solution (final DMSO was 0.1-0.05% vol/vol). The current recordings were performed using a Warner OC-725B or C amplifier at a holding potential of −40 mV.
# [17] = biological target: T7, GluN2D-containing receptors (Rattus norvegicus, UniProt Q62645); experiment: Two-electrode voltage-clamp inhibition of GluN2D-containing NMDA receptors in Xenopus laevis oocytes; type: cell-based; conditions: GluN2D-containing receptors; read-out: inhibition IC50 for GluN2D
# T7 construct: expressed in transfected cells; host or cells: Xenopus laevis oocytes
# Procedure: as §3, §4
# Sequence of GluN1/GluN2D (Q62645 28-1323, other chains not shown): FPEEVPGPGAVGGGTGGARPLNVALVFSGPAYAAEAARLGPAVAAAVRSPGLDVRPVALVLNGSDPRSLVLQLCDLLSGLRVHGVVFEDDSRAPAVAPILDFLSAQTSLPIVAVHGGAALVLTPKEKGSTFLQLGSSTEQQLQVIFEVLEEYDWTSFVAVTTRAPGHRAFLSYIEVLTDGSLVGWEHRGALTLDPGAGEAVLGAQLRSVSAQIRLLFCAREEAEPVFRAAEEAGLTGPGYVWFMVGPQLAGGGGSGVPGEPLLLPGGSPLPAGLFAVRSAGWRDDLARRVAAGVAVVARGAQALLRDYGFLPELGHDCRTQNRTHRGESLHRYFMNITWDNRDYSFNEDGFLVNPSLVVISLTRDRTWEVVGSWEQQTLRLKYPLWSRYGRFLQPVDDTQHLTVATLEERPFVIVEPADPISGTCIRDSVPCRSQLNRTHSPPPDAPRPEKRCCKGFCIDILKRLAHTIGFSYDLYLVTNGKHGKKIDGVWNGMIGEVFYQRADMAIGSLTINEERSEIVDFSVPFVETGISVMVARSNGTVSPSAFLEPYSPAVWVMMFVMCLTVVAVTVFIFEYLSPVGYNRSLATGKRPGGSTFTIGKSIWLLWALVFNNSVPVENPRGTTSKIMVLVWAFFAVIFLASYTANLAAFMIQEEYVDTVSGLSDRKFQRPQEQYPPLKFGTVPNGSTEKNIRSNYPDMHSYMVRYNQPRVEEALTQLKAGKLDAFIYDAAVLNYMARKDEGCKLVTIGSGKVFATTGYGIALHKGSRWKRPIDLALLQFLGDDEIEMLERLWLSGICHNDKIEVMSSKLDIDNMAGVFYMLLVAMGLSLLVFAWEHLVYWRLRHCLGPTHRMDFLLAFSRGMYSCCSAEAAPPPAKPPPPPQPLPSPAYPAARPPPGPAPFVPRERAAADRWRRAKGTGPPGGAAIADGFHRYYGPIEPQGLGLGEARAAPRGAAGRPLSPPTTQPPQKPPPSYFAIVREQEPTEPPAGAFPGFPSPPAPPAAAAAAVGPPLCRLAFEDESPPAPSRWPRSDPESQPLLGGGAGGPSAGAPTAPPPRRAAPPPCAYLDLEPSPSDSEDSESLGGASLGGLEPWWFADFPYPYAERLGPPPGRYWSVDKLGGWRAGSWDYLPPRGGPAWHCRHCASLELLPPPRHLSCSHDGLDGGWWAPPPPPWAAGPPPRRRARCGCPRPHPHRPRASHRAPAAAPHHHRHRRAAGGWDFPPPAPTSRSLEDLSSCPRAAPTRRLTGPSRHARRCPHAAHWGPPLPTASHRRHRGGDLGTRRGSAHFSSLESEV
# Sequence of GluN1/GluN2D receptors (Q62645 28-1323, other chains not shown): as above
# T3 sequence (P41145 whole entry): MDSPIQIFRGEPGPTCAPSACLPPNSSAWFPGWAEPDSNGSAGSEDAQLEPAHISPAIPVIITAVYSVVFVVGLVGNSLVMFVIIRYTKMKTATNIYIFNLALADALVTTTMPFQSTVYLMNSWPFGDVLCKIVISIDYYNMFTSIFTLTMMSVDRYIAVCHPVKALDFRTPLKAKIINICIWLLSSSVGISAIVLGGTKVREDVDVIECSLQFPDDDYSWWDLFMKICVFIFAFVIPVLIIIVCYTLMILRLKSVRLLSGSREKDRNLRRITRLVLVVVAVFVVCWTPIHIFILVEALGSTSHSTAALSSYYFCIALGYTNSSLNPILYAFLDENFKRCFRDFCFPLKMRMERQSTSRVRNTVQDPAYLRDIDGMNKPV
# T1 sequence (P50406 whole entry, species assumed): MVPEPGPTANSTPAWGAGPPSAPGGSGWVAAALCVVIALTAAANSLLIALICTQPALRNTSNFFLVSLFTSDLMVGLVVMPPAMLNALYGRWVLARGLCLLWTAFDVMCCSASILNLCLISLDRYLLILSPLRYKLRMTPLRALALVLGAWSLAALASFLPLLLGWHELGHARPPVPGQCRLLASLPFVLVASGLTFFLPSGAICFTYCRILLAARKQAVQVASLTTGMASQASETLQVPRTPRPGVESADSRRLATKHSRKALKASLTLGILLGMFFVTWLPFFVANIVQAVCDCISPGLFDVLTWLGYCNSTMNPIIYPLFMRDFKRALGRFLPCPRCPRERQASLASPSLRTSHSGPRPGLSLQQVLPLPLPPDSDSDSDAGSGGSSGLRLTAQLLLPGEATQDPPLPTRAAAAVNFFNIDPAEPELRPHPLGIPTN
# T5 sequence (P35372 whole entry): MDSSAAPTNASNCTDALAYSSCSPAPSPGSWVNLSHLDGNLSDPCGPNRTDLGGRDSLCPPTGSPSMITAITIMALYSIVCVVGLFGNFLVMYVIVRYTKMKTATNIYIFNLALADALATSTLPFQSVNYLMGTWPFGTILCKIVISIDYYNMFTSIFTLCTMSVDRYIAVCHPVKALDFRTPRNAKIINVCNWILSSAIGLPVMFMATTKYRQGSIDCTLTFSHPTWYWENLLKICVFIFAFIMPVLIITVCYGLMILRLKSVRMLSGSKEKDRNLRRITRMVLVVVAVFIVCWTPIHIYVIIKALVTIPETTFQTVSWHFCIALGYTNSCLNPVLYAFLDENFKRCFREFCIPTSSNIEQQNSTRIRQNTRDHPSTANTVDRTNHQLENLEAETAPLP
# T4 sequence (P28566 whole entry, species assumed): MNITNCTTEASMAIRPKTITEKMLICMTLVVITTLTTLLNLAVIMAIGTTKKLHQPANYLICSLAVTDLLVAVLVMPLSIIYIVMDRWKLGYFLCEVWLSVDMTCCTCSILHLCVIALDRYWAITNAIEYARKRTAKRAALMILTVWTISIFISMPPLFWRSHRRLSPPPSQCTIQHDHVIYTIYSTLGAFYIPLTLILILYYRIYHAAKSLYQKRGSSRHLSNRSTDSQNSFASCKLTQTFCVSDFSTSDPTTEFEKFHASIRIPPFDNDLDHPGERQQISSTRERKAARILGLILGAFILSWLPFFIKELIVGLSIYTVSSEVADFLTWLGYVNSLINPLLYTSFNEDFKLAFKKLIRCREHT
# T2 sequence (P25021 whole entry): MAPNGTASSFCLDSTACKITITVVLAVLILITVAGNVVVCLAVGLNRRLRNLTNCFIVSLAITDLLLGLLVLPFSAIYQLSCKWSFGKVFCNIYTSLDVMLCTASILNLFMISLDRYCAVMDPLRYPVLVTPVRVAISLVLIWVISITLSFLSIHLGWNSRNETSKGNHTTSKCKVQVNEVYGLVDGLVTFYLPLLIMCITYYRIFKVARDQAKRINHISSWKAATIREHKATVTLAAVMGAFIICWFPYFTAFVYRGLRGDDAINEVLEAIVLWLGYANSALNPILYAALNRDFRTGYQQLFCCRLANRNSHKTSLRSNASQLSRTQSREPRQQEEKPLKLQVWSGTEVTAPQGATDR
# T7 sequence (Q62645 28-1323, other chains not shown): as the sequence (Q62645 28-1323, other chains not shown) above
# T6 sequence (Q00961 20-1237, other chains not shown): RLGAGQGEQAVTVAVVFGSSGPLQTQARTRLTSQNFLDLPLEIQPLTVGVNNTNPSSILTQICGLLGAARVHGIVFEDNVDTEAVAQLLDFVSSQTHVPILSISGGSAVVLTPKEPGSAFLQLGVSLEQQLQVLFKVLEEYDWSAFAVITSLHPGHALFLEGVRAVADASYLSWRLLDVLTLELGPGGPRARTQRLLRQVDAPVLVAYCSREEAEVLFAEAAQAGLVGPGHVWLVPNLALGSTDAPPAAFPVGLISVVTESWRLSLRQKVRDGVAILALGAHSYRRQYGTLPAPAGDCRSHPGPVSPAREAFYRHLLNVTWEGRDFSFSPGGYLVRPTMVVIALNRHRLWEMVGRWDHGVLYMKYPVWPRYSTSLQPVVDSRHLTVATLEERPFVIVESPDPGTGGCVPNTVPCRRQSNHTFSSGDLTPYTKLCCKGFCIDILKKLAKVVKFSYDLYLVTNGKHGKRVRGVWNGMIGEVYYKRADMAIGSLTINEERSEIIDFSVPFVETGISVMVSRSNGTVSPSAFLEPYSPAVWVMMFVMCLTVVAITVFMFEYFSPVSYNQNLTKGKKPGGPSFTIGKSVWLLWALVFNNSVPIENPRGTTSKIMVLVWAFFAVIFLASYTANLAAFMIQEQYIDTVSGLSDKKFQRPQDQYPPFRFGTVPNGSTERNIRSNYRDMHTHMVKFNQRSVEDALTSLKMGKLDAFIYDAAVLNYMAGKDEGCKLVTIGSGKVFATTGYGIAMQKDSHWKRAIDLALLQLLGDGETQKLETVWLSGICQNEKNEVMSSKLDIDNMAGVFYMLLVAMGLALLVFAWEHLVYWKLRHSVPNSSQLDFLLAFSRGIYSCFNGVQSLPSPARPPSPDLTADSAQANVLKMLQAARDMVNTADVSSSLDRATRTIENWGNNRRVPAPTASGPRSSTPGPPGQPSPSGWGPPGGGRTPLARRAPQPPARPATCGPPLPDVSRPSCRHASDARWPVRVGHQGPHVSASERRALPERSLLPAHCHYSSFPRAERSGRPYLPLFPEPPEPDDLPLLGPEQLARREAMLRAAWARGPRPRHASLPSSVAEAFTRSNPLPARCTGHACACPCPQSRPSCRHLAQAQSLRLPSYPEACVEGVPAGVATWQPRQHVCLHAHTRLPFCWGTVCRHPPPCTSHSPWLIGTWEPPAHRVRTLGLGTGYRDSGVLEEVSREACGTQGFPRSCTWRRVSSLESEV
effect on receptors and transporters in primary binding assay [2],Ki [3],Ki [5],plasma stability [6],plasma stability [7],plasma stability [8],solubility [9],SMILES,other results
minimal effect,> 10 µM,> 10 µM,minimal degradation,minimal degradation,minimal degradation,> 80 µM,"O=C(O)CCC(=O)N1N=C(c2c(-c3ccc(Cl)cc3)c3ccccc3[nH]c2=O)CC1c1ccc(Cl)cc1 (racemic) [Compound 997-23, 4-(5-(4-Chlorophenyl)-3-(4-(4-chlorophenyl)-2-oxo-1,2-dihydroquinolin-3-yl)-4,5-dihydro-1H-pyrazol-1-yl)-4-oxobutanoic acid]","effect of GluN2D mutations on degree of inhibition [1]: significantly reduced the degree of inhibition; Ki [4]: > 10 µM; Papp A-B [10]: 0.47 ×10⁻⁶ cm/s; degradation in human liver microsomes, in words [11]: minimal degradation"
minimal effect,> 10 µM,> 10 µM,minimal degradation,minimal degradation,minimal degradation,> 80 µM,"O=C(O)/C=C/C(=O)N1N=C(c2c(-c3ccc(Br)cc3)c3ccccc3[nH]c2=O)CC1c1ccc(Cl)cc1 (racemic) [Compound 997-33, (E)-4-(3-(4-(4-Bromophenyl)-2-oxo-1,2-dihydroquinolin-3-yl)-5-(4-chlorophenyl)-4,5-dihydro-1H-pyrazol-1-yl)-4-oxobut-2-enoic acid]","GluN1/GluN2D response remaining ([12]; 30 μM glutamate and glycine, n=6): 4.1 ± 0.58 % of control; GluN1/GluN2D response remaining ([12]; 3 mM glutamate and glycine, n=6): 3.1 ± 0.50 % of control; GluN1/GluN2D response remaining ([12]; +30 mV, n=8): 4.8+1.2 % of control; GluN1/GluN2D response remaining ([12]; −40 mV, n=8): 4.9 ± 1.3 % of control; IC50 ([13]; HEK293 cells, n=4, read-out: IC50 for inhibition of the response under whole-cell voltage clamp): 0.99 µM; Kd ([13]; calculated from kOFF and kON, read-out: dissociation constant KD): 0.99 µM; Ki [14]: > 10 µM; Ki [15]: > 10 µM"
–,–,–,–,–,–,–,"O=C(O)CCCN1N=C(c2c(-c3ccc(Cl)cc3)c3ccccc3[nH]c2=O)CC1c1ccc(Cl)cc1 (stereo not shown) [Compound 997-63, 4-(5-(4-Chlorophenyl)-3-(4-(4-chlorophenyl)-2-oxo-1,2-dihydroquinolin-3-yl)-4,5-dihydro-1H-pyrazol-1-yl)butanoic acid]",IC50 [16]: 3 µM; IC50 [17]: 1.7 µM
